System: 4T1.2 (breast cancer)
Test: 4T1.2 breast cancer metastasis model
Type: in vivo, mouse
Conditions: compound 1 combined with anti-PD1 (data not shown)
Procedure: C57BL/6 or Balb/c Wild-type (WT) mice were purchased from Walter and Eliza Hall Institute for Medical Research or bred in house and maintained at the QIMR Berghofer Medical Research Institute. Mice greater than 8 weeks of age were sex-matched to the appropriate models. In all studies, no mice were excluded based on pre-established criteria and randomization was applied immediately prior to treatment in therapy experiments. Experiments were conducted as approved by the QIMR Berghofer Medical Research Institute Animal Ethics Committee.
Mouse B16F10 (melanoma), MC38 (colon adenocarcinoma) and 4T1.2 (breast cancer) cells were grown in Dulbecco's Modified Eagle Medium (DMEM) supplemented with 10% Fetal Calf Serum (Bovogen), 1% Glutamine (Gibco), and 1% Penicillin/Streptomycin (Gibco). B16F10 and 4T1.2 cells were maintained at 37° C., 5% CO2. MC38 cells were maintained at 37° C., 10% CO2. All cell lines were routinely tested negative for Mycoplasma, but cell line authentication was not routinely performed.
5×10^4 4T1.2 cells were injected into the 4th mammary fat pad in a volume of 50 μl (day 0). On day 12 after injection, primary tumours were surgically removed under isoflurane anesthesia. Mice were injected treated as indicated in figure legends on day 15, 18 and 21 after tumour cell injection. […] For this, macroscopic visible lung metastases were counted. […]

weight loss: without affecting weight loss
Structure (SMILES): CCCCCCCCCCCCCCCC(=O)OCC(CSCC(N)C(=O)N[C@@H](CO)C(=O)NCCOCCOCCOCCOCCOCCOCCOCCOCCOCCOCCOCCOCCC(=O)NCC(N)=O)OC(=O)CCCCCCCCCCCCCCC (stereo partly shown) [compound 1]

Reference: patent publication US20230043518A1, “CANCER IMMUNOTHERAPY” (AXELIA ONCOLOGY PTY LTD, priority 2019, published 2023)
